Assay results taken from patent US4985558A, “1,4-dihydropyridine derivative” (Nikken Chemicals Co., Ltd., priority 1988, dated 1991).
Several values for one entry are separate records, joined by “and”; a condition that tells them apart may be missing. Equal entries are not always repeated.

Experiments:
[1] = tested on: vincristine (VCR)-resistant mouse leukemia (P388/VCR) cells; test: Antitumor agent potentiating effect in vincristine-resistant tumor bearing mouse (Example 11, i.p. 5 days); type: in vivo
Experimental: The potentiating effect of the antitumor agent (T/V) % was determined according to the formula shown below. Verapamil was employed as the positive Control compound. […] In the Tables, Compound 1 is the compound obtained in Example 1, Compound 2 that obtained in Example 2, Compound 3 that obtained in Example 3, Compound 4 that obtained in Example 4, and Compound 5 that obtained in Example 5. [formula]

rat rectum smooth muscle = test: Inhibitory effects on potassium contracture in rat rectum smooth muscle; type: cell-based; details: 5 min, K contraction 5.6 to 56.0 mM, read-out: Inhibition ratio; for inhibition at 0.1 µM: 10^-7 M; for inhibition at 0.01 µM: 10^-8 M
Experimental: Rat rectum (about 1.5 cm) was isolated and suspended in a Magnus tube. A Locke solution was employed as the nutrient solution, and a contraction of the intestinum rectum was caused by changing the potassium (K) concentration of this solution from 5.6 mmol (mM) to 56.0 mM. This contraction was a contraction through a membrane dependent Ca-channel mediated contraction based on depolarization by a K concentration change. The contraction was recorded by an FD-transducer and polygraph. The compounds of the present invention were permitted to act 5 minutes before changing the K concentration, and simultaneously with changing the K concentration. […] A judgement was made 5 minutes after changing the K concentration, and the difference in contraction before the concentration change was indicated as an inhibition % value. Verapamil and nicardipine were employed as the positive control compound .

[2] = tested on: spontaneously hypertensive rats (SHR); details: rat, in vivo, ip, 100 mg/kg
Experimental: The systolic blood pressure was measured by using spontaneously hypertensive rats (SHR), which are a model of hypertension when examine the hypotensive activities of the compounds of the present invention and the positive Control compound. The rats were warmed for 5 minutes in a warming box at 55° C., and their blood pressure then measured by a tail cuff plethysmograph. The compounds of the present invention were administered singly and intraperitoneally at a dose of 100 mg/kg and the positive Control compound was administered singly and intraperitoneally at a dose of 10 mg/kg. […] Blood pressure measurements were taken before administration and 60 minutes after administration. Nicardipine was employed as the positive Control compound.

ICR mice = test: acute toxicity test; details: mouse, in vivo;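 also: intraperitoneal dosing with deaths counted over 10 days of observation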
Experimental: Male 6-week-old ICR mice were divided into groups of 2 to 5 mice per group. […] The drugs to be tested were administered in varying amounts of 250 to 2000 mg/kg to 5 or 7 groups (a geometrical series of .cent.2), at a dose volume of 10 ml/kg. In the Table, the respective compounds have the same meanings as described above.

[3] = compound 100 mg/kg i.p. + VCR 30 μg/kg i.p.
[4] = compound alone 100 mg/kg i.p., no VCR

SMILES	Potentiating effect T/V [1, 3]	Survival Days (Mean ± SD) [1, 3]	Survival ratio T/C [1, 3]	Survival Days (Mean ± SD) [1, 4]	Survival ratio T/C [1, 4]	inhibition at 0.1 µM (rat rectum smooth muscle)	inhibition at 0.01 µM (rat rectum smooth muscle)	Blood pressure change [2]	Systolic Blood Pressure 60 minutes after administration [2]	Mortality (ICR mice)
CC1=C(C(=O)OCc2cccc(C)n2)C(C2=COCCO2)C(C(=O)OCc2cccc(C)n2)=C(C)N1 [Compound 2]	130%	13.7 ± 1.0 days	140%	10.3 ± 0.5 days	105%	-2.1%	-5.6%	-15 mmHg	204 mmHg	0/4 and 1/5 and 0/5
CC1=C(C(=O)OCCCc2cccnc2)C(C2=COCCO2)C(C(=O)OCCCc2cccnc2)=C(C)N1 [Compound 3, bis[3-(3-pyridyl)propyl]4-[2-(5,6-dihydro-p-dioxinyl)]-2,6-dimethyl-1,4-dihydropyridine-3,5-dicarboxylate]	130%	13.7 ± 1.5 days	140%	10.3 ± 0.5 days	105%	-4.2%	-11.5%	–	–	4/4 and 3/4 and 1/5 and 2/5 and 0/5
